Source: patent EP1190708A1, “Medical use of substances” (Tinnitus Forschungs- und Entwicklungs GmbH, priority 2000, dated 2002)

Tests used:
[1] = tested on: inhibitory postsynaptic currents (IPSC) in outer hair cells; experiment: Voltage-clamp recording of inhibitory postsynaptic currents in outer hair cells of the organ of Corti preparation; type: cell-based, Wistar rats; design: inhibition of postsynaptic currents (reversibility): dose or concentration left out as unconfirmed
Experimental: Organs of Corti were dissected from the cochleae of Wistar rats (11-24 days old) as described previously (Oliver, D. and Fakler, B. 1999. J. Physiol. (Lond.) 519 pt. 3, 791-800; Oliver, D., Klöcker, N., Schluck, J., Baukrowitz, T., Rup-persberg, J.P. and Fakler, B. 2000. Neuron 26, 591-601). The electrophysiology on OHCs was also described previously (Oliver, D. et al., 2000, see above).
(§1) In Fig 1B, postsynaptic currents were recorded from OHCs in voltage-clamp experiments when cells were held at -64 mV and the whole Corti preparation was superfused with high extracellular K^+ (150 mM) to depolarize the presynapse. Application of high K^+ and toxins as indicated by horizontal bars: current and time scaling as indicated.
as §1, with “3,” for “1B,”, “outer hair cells (OHCs)” for “OHCs”, “K^+” for “K^+ (150 mM)”, “indicated. […] This dose-dependent response determined for the IPSC in OHCs is illustrated in Fig. 3B.” for “indicated.”

[2] = target: T1, alpha9/alpha10 heteromeric acetylcholine receptors expressed in Xenopus oocytes (Rattus norvegicus, UniProt P43144+Q9JLB5); experiment: Voltage-clamp recording of current responses to acetylcholine in oocytes expressing alpha9/alpha10 subunits; type: cell-based
T1 construct: expressed in transfected cells; host or cells: Xenopus laevis oocytes injected with in vitro synthesised mRNA
T1 sequence (P43144 26-479): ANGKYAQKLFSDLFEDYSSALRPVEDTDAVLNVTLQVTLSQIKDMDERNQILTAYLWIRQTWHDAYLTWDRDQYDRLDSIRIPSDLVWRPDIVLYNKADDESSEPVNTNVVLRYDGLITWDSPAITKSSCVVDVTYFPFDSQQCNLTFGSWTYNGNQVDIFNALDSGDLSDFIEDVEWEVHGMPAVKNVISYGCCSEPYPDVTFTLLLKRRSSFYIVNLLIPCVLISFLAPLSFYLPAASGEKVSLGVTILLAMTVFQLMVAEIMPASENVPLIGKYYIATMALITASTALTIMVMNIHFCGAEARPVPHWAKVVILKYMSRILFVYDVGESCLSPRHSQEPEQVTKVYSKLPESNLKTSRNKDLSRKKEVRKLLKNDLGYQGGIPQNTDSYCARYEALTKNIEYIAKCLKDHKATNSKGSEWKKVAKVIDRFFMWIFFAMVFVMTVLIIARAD
T1 sequence (Q9JLB5 25-447): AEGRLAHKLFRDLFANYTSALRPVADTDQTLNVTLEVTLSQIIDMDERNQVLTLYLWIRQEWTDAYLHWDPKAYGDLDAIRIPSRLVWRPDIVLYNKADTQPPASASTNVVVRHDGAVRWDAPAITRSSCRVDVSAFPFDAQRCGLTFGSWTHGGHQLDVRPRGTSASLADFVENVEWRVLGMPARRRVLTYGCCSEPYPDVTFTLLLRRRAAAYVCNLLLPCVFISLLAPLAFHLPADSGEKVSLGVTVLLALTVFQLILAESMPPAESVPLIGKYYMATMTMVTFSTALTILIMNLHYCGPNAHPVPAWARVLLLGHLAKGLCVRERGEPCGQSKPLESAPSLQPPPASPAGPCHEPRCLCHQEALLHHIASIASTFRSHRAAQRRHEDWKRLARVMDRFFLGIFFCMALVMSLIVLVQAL
Experimental: In vitro mRNA synthesis and oocyte injections were performed as previously described (Fakler, B., Brandle, U., Glowatzki, E., Weidemann, S., Zenner, H.P. and Ruppersberg, J.P. 1995. Cell 80, 149-154; Oliver, D. et al., 2000, see above). The electrophysiology on oocytes was also performed as described previously (Oliver, D. et al., 2000, see above).
For further characterization of strychnine treatment on the nAChR, the mRNA of alpha9/alpha10 subunits of the acetylcholine receptor were injected in oocytes of Xexopus laevis.
After expression of these subunits, they were investigated by treatment with strychnine in voltage-clamp experiment. The cells were held at -30 mV. Current and time scaling are as indicated. As is shown in Fig. 2, similar results were obtained as in Fig. 1. Consistent with the model shown above, the current responses at the acetylcholine receptor could be blocked reversibly by application with the acetylcholine blocker strychnine.
For further characterization of memantine treatment on the neuronal acetylcholine receptor (nAChR), the mRNA of alpha9-/alpha10 subunits of the acetylcholine receptor were injected in oocytes of Xexopus laevis. After expression of that subunits, these subunits were investigated by treatment with memantine in voltage-clamp experiment. The cells were held at -30 mV. Current and time scaling are as indicated. As is shown in Fig. 4, similar results were obtained as in Fig. 3. In this experiment the polarization potential of the cells was meassured after application of 100 µM acetylcholine in the presence or absence of memantine. Consistent with the results obtained in Fig. 3, the current responses at the acetylcholine receptor could be blocked by application with memantine. A halfmaximal inhibition occurs at concentrations of approximately 1 µM, as is illustrated in Figur 4B.

## CC12CC3CC(C)(C1)CC(N)(C3)C2 [memantine]
[1]; OHCs held at -64 mV, dose-dependent response, Fig. 3
  inhibition of postsynaptic currents (reversibility): reversibly inhibited
[1]; Rattus norvegicus, iPSC, OHCs held at -64 mV, high extracellular K+, Fig. 3B
  IC50: ~16.6 µM
[2]
  IC50: ~1 µM

## O=C1C[C@@H]2OCC=C3CN4CC[C@]56c7ccccc7N1[C@H]5[C@H]2[C@H]3C[C@H]46 [strychnine]
[1]
  complete inhibition of postsynaptic currents at (concentration): 100 nM
[2]
  complete inhibition of current responses at the acetylcholine receptor at (concentration): 1 µM
  reversibility of block of the receptor: reversible block of the receptor
